# Measured values reported in US20040138156A1, “Therapeutic regulation of deoxyribonuclease-1-like-3 activity” (priority 2002, published 2004).
# Test system: bone marrow macrophages
# Assay: Induction of D1L3 in cultured bone marrow macrophages (anti-D1L3 immunoblot, RDA, zymogram)
# Format: cell-based, C57BL mice
# Details: 100 U/ml for the interferons
# Method: FIG. 22. Normal and induced expression of D1L3 in murine macrophages. […] In anti-D1L3 blots of cell lysates, the protein is seen both as a ^˜34 kDa uncleaved molecule and a ^˜28 kDa cleaved molecule. […] Cells were plated on serum-coated tissue culture dishes and incubated overnight, the next morning, non-adherent cells (N) were rinsed vigorously with PBS 1×, and both adeherent (A) and non-adherent cells (N) from C57BL, NZB/W, BXSB, and MRL were lysed and immunoblotted with anti-D1L3. While the ^˜34 kDa size band consistent with uncleaved D1L3 is present in both adherent and non-adherent, the cleaved form (^˜28 kDa) is present almost exclusively in the adherent population of presumed macrophages. Also noticable are the higher levels of expression of D1L3 in the 3 latter lupus strains. Panel B: Untreated bone marrow macrophages from NZB/WF1 mice have a much higher baseline expression expression of D1L3 than C57BL macrophages.
# Induction is present in macrophages from both strain though the absolute level of induction appears greater in C57BL than in the SLE-prone NZB/W F1 strain. NZB/W protein loads in Ifn-γ-negative lane is slightly underloaded relative to actin. Panel C: Bone marrow macrophages isolated from bone marrow (via adherence) from MRL and C57BL mice, and cultured for 2 days in vitro, were induced by Ifn-γ. […] No induction of D1L3, RDA-DNASE, or zymographic DNASE activity is evident upon tratement with 100 U/ml of Ifn-alpha. […] Panel D: Bone marrow macrophages from C57BL and MRL mice cultured for 7 days in the presence of GM-CSF were induced with Ifn-γ, again showing the higher baseline levels of 28 kDa enzyme in the lupus prone strain, and in C57BL showing induction of levels aftern Ifn-γ. […]
# Assays of Murine Cells. […] Splenocytes were counted using a hemochromocytometer, and plated at 2 million cells/ml on plastic 6-well Falcon tissue culture dishes (Becton Dickinson) in RPMI with 10% FCS. […]
row,Compound,induction of D1L3 in macrophages
1,"CCCCCCCCCCCCCC(=O)O[C@@H]1[C@@H](C)[C@@]2(O)[C@@H](C=C(CO)C[C@]3(O)C(=O)C(C)=C[C@@H]23)[C@@H]2C(C)(C)[C@]12OC(C)=O [PMA, phorbol myristate acetate]",inducible
2,lipopolysaccaride [LPS],inducible
